Results from patent US20210085711A1 (Japan Tobacco Inc., priority 2017, published 2021).
Where two headings read alike, the source gives them in different places.

How the values were obtained:
[1] = tested on: patients with hypermenorrhea and/or patients with hypermenorrhea-associated gynecologic diseases (iron-deficiency anemia patients); conditions: for Hb change, End of administration, Mean: change from baseline; for Williams test, Mean of change amount from the baseline at the end of administration, JTT-751-placebo: difference to placebo
Procedure: (§1) This test was a three-stage safety and efficacy clinical trial at multi-facilities. The first stage was a pre-observation period (Day −40 to Day −1), the second stage was an administration period (Day 1 to Day 48) (efficacy and safety evaluation period), and the third stage was a post-observation period (Day 49 to Day 63) (efficacy and safety evaluation period). The safety evaluation and efficacy evaluation were performed by multi-facility collaboration, placebo control, random allocation, double-blind trial, and parallel group comparison test.
(§2) The administration period of the trial drug is seven weeks which starts from the next day of the Week 0 visit to the day before the Week 7 visit, provided that the trial drug is not taken on the scheduled Week 3 visit.
Amount of change in blood hemoglobin value (Hb) from Week 0 at the end of administration
The mean of each administration group is used as a placebo group (μ1), a 250 mg group (μ2), a 500 mg group (μ3), a 1000 mg group (μ4), a 1500 mg group (μ5).
(§3) The blood hemoglobin value (Hb), the serum iron level, the serum ferritin value, the total iron-binding capacity (TIBC) and the transferrin saturation rate (TSAT), and the mean corpuscular volume (MCV) were each examined at the observation start date, Week 0, Week 3, Week 7, the end of administration and the consultation at nine weeks after Week 0; the hepcidin concentration (Hepcidin 25) and the serum soluble transferrin receptor concentration (sTfR) were each examined on Week 0, Week 3 and Week 7 and at the end of administration; and the C-terminal FGF23 value (cFGF23) and the intact FGF23 value (iFGF23) were each examined on Week 0 and Week 7 and at the end of administration.

[2] = tested on: patients with hypermenorrhea and/or patients with hypermenorrhea-associated gynecologic diseases (iron-deficiency anemia patients); experiment: Phase II clinical trial of JTT-751: serum iron level; assay type: in vivo, human
Procedure: as §1
(§4) (1) Japanese patients who are 20 or more and less than 65 years old at the time of agreement and can visit an outpatient clinic (2) Patients who have an Hb value (measured using HemoCue® Hb 201 DM analyzer in the institute of clinical practice) of 7.0 g/dL or more and less than 11.0 g/dL on both the observation start date and Week 0, and the difference between the two days is 1.0 g/dL or less (3) Patients with a TIBC of 360 μg/dL or more or a serum ferritin value of less than 12 ng/mL on the observation start date
as §2
(2) Subsidiary evaluation items 1) Erythrocyte-related examination values and amount of change from Week 0 at each observation date 2) Iron-related test values and amount of change from Week 0 at each observation date 3) Achievement rate of target Hb value (female; 12.0 g/dL or more, male; 13.0 g/dL or more) at each observation date 4) Achievement rate of 1.0 g/dL or more and achievement rate of 2.0 g/dL or more in Hb value improvement from Week 0 at each observation date 5) Average daily change of Hb value from Week 0 to each observation date
as §3

[3] = tested on: patients with hypermenorrhea and/or patients with hypermenorrhea-associated gynecologic diseases (iron-deficiency anemia patients); experiment: Phase II clinical trial of JTT-751: C-terminal FGF23 value (cFGF23); assay type: in vivo, human
Procedure: as §1, §4, §2, §3

[4] = 250 mg/day, 9 weeks after Week 0
[5] = 250 mg/day, End of administration
[6] = 500 mg/day, 9 weeks after Week 0
[7] = 500 mg/day, End of administration
[8] = 1000 mg/day, 9 weeks after Week 0
[9] = 1000 mg/day, End of administration
[10] = 1500 mg/day, 9 weeks after Week 0
[11] = 1500 mg/day, End of administration
[12] = 250 mg/day, Week 3 (Week 0 not given)
[13] = 500 mg/day, Week 3 (Week 0 not given)
[14] = 1000 mg/day, Week 3 (Week 0 not given)
[15] = 1500 mg/day, Week 3 (Week 0 not given)

Ferric citrate [JTT-751]
Hb measured value, Base line, Mean ([1]; 250 mg/day): 9.47 g/dL
Hb measured value, End of administration, Mean ([1]; 250 mg/day): 11.72 g/dL
Williams test, Mean of change amount from the baseline at the end of administration, Mean ([1]; 250 mg/day): 2.25 g/dL
Hb, Median [1, 4]: 11.60 g/dL
Hb, Median [1, 5]: 11.80 g/dL
Hb, Median ([1]; 250 mg/day, Observation start date (before administration)): 9.55 g/dL
Hb, Median ([1]; 250 mg/day, Week 0 (baseline)): 9.80 g/dL
Hb, Median ([1]; 250 mg/day, Week 3): 10.75 g/dL
Hb, Median ([1]; 250 mg/day, Week 7): 11.80 g/dL
Hb change, End of administration, Mean ([1]; 250 mg/day): 2.25 g/dL
Williams test, Mean of change amount from the baseline at the end of administration, JTT-751-placebo ([1]; 250 mg/day): 2.50 g/dL
Hb measured value, Base line, Mean ([1]; 500 mg/day): 8.98 g/dL
Hb measured value, End of administration, Mean ([1]; 500 mg/day): 11.71 g/dL
Williams test, Mean of change amount from the baseline at the end of administration, Mean ([1]; 500 mg/day): 2.73 g/dL
Hb, Median [1, 6]: 11.70 g/dL
Hb, Median [1, 7]: 11.90 g/dL
Hb, Median ([1]; 500 mg/day, Observation start date (before administration)): 9.30 g/dL
Hb, Median ([1]; 500 mg/day, Week 0 (baseline)): 8.95 g/dL
Hb, Median ([1]; 500 mg/day, Week 3): 10.10 g/dL
Hb, Median ([1]; 500 mg/day, Week 7): 11.90 g/dL
Hb change, End of administration, Mean ([1]; 500 mg/day): 2.73 g/dL
Williams test, Mean of change amount from the baseline at the end of administration, JTT-751-placebo ([1]; 500 mg/day): 2.98 g/dL
Hb measured value, Base line, Mean ([1]; 1000 mg/day): 9.66 g/dL
Hb measured value, End of administration, Mean ([1]; 1000 mg/day): 12.72 g/dL
Williams test, Mean of change amount from the baseline at the end of administration, Mean ([1]; 1000 mg/day): 3.05 g/dL
Hb, Median [1, 8]: 12.70 g/dL
Hb, Median [1, 9]: 12.90 g/dL
Hb, Median ([1]; 1000 mg/day, Observation start date (before administration)): 9.90 g/dL
Hb, Median ([1]; 1000 mg/day, Week 0 (baseline)): 9.80 g/dL
Hb, Median ([1]; 1000 mg/day, Week 3): 11.80 g/dL
Hb, Median ([1]; 1000 mg/day, Week 7): 12.90 g/dL
Hb change, End of administration, Mean ([1]; 1000 mg/day): 3.05 g/dL
Williams test, Mean of change amount from the baseline at the end of administration, JTT-751-placebo ([1]; 1000 mg/day): 3.30 g/dL
Hb measured value, Base line, Mean ([1]; 1500 mg/day): 9.38 g/dL
Hb measured value, End of administration, Mean ([1]; 1500 mg/day): 12.75 g/dL
Williams test, Mean of change amount from the baseline at the end of administration, Mean ([1]; 1500 mg/day): 3.37 g/dL
Hb, Median [1, 10]: 12.70 g/dL
Hb, Median [1, 11]: 13.00 g/dL
Hb, Median ([1]; 1500 mg/day, Observation start date (before administration)): 9.40 g/dL
Hb, Median ([1]; 1500 mg/day, Week 0 (baseline)): 9.40 g/dL
Hb, Median ([1]; 1500 mg/day, Week 3): 11.60 g/dL
Hb, Median ([1]; 1500 mg/day, Week 7): 13.00 g/dL
Hb change, End of administration, Mean ([1]; 1500 mg/day): 3.37 g/dL
Williams test, Mean of change amount from the baseline at the end of administration, JTT-751-placebo ([1]; 1500 mg/day): 3.62 g/dL
blood hemoglobin value, dose dependence ([1]; 250-1500 mg/day): increases along with the dose increase
blood hemoglobin value, time-dependent change ([1]; Week 0, Week 3 and Week 7): increased along with the continuous administration
blood hemoglobin value after completion of administration ([1]; nine weeks after Week 0 (two weeks after completion of administration)): did not decrease
blood hemoglobin value compared to the placebo administration group ([1]; regardless of the dose amount (250-1500 mg/day), end of administration): significantly increase
Serum iron, Mean [2, 4]: 14.3 µg/dL
Serum iron, Median [2, 4]: 13.0 µg/dL
Serum iron, Mean [2, 5]: 30.4 µg/dL
Serum iron, Median [2, 5]: 25.0 µg/dL
Serum iron, Mean [2, 12]: 19.9 µg/dL
Serum iron, Median [2, 12]: 18.5 µg/dL
Serum iron, Mean ([2]; 250 mg/day, Week 7): 30.4 µg/dL
Serum iron, Median ([2]; 250 mg/day, Week 7): 25.0 µg/dL
Serum iron, Mean [2, 6]: 24.6 µg/dL
Serum iron, Median [2, 6]: 18.0 µg/dL
Serum iron, Mean [2, 7]: 40.1 µg/dL
Serum iron, Median [2, 7]: 42.5 µg/dL
Serum iron, Mean [2, 13]: 29.6 µg/dL
Serum iron, Median [2, 13]: 13.5 µg/dL
Serum iron, Mean ([2]; 500 mg/day, Week 7): 40.1 µg/dL
Serum iron, Median ([2]; 500 mg/day, Week 7): 42.5 µg/dL
serum iron level on Week 3 ([2]; 1000 mg administration group and 1500 mg administration group, Week 3): improved to a normal value
Serum iron, Mean [2, 8]: 40.3 µg/dL
Serum iron, Median [2, 8]: 38.0 µg/dL
Serum iron, Mean [2, 9]: 48.3 µg/dL
Serum iron, Median [2, 9]: 52.0 µg/dL
Serum iron, Mean [2, 14]: 55.5 µg/dL
Serum iron, Median [2, 14]: 36.0 µg/dL
Serum iron, Mean ([2]; 1000 mg/day, Week 7): 48.3 µg/dL
Serum iron, Median ([2]; 1000 mg/day, Week 7): 52.0 µg/dL
Serum iron, Mean [2, 10]: 38.1 µg/dL
Serum iron, Median [2, 10]: 34.0 µg/dL
Serum iron, Mean [2, 11]: 54.4 µg/dL
Serum iron, Median [2, 11]: 46.0 µg/dL
Serum iron, Mean [2, 15]: 53.1 µg/dL
Serum iron, Median [2, 15]: 27.0 µg/dL
Serum iron, Mean ([2]; 1500 mg/day, Week 7): 54.4 µg/dL
Serum iron, Median ([2]; 1500 mg/day, Week 7): 46.0 µg/dL
serum iron level, increased to a normal value ([2]; continuous administration, Week 0, Week 3 and Week 7): about 50 μg/dL
cFGF23, Mean [3, 5]: 214.72 RU/mL
cFGF23, Median [3, 5]: 158.50 RU/mL
cFGF23, Mean ([3]; 250 mg/day, Week 0 (baseline)): 779.17 RU/mL
cFGF23, Median ([3]; 250 mg/day, Week 0 (baseline)): 705.00 RU/mL
cFGF23, Mean ([3]; 250 mg/day, Week 7): 214.72 RU/mL
cFGF23, Median ([3]; 250 mg/day, Week 7): 158.50 RU/mL
cFGF23, Mean [3, 7]: 151.89 RU/mL
cFGF23, Median [3, 7]: 127.50 RU/mL
cFGF23, Mean ([3]; 500 mg/day, Week 0 (baseline)): 1011.06 RU/mL
cFGF23, Median ([3]; 500 mg/day, Week 0 (baseline)): 773.50 RU/mL
cFGF23, Mean ([3]; 500 mg/day, Week 7): 151.89 RU/mL
cFGF23, Median ([3]; 500 mg/day, Week 7): 127.50 RU/mL
cFGF23, Mean [3, 9]: 130.39 RU/mL
cFGF23, Median [3, 9]: 100.00 RU/mL
cFGF23, Mean ([3]; 1000 mg/day, Week 0 (baseline)): 675.16 RU/mL
cFGF23, Median ([3]; 1000 mg/day, Week 0 (baseline)): 564.00 RU/mL
cFGF23, Mean ([3]; 1000 mg/day, Week 7): 130.39 RU/mL
cFGF23, Median ([3]; 1000 mg/day, Week 7): 100.00 RU/mL
cFGF23, Mean [3, 11]: 114.92 RU/mL
cFGF23, Median [3, 11]: 94.20 RU/mL
cFGF23, Mean ([3]; 1500 mg/day, Week 0 (baseline)): 842.52 RU/mL
cFGF23, Median ([3]; 1500 mg/day, Week 0 (baseline)): 777.00 RU/mL
cFGF23, Mean ([3]; 1500 mg/day, Week 7): 114.92 RU/mL
cFGF23, Median ([3]; 1500 mg/day, Week 7): 94.20 RU/mL
C-terminal FGF23 value (cFGF23), time-dependent change ([3]; continuous administration): decreased along with the continuous administration
